Results on two compounds are retold here after patent US8314082B2, “Stilbene derivatives for ADP-ribosyl cyclase inhibitors” (Industrial Cooperation Foundation Chonbuk National …, priority 2006, dated 2012).

Where two headings read alike, the source gives them in different places.

Assay type in all cases: cell-based
The test system of test [1] is OKT3 induced cADPR production in Jurkat T cells. Kind of test: OKT3-induced [cADPR]i in Jurkat T cells. To be noted: pretreatment. The method, then: [cADPR]i was measured using a cyclic enzymatic assay as described previously [Graeff et al., Biochem. J. (2002)361:379-84]. Aplysia californica ADPR-cyclase was purified from […] according to the method described [Lee et al., Cell Regul. (1991)2:203-9]. Briefly, MMCs were treated with 0.3 ml of 0.6 M perchloric acid under sonication after Ang II treatment. Precipitates were removed by centrifugation at 20,000×g for 10 min. […] After centrifugation for 10 min at 1500×g, the aqueous layer was collected and neutralized with 20 mM sodium phosphate (pH 8). To remove all contaminating nucleotides, the samples were incubated with the following hydrolytic enzymes overnight at 37° C.: 0.44 unit/ml nucleotide pyrophosphatase, 12.5 units/ml alkaline phosphatase, 0.0625 unit/ml NADase, and 2.5 mM MgCl2 in 20 mM sodium phosphate buffer (pH 8.0). Enzymes were removed by filtration using Centricon-3 filters. […] An increase in the resorufin fluorescence was measured at 544 nm excitation and 590 nm emission using a fluorescence plate reader (Molecular Devices Corp., Spectra-Max GEMINI). […] Measurement of [cADPR]i in Jurkat T cells were determined as described above examples 5.

Test [2] deals with Ang II induced cADPR production in murine mesangial cells (MMCs). The test is described as follows: Ang II-induced intracellular cADPR concentration in MMCs. To be noted: for IC50: Mus musculus, Mesangial cell, cADPR production induced by 150 nM Ang II, 90 s, MMCs, read-out: IC50([CADPR]i, uM) (means ± SEM). As to the method:
[cADPR]i was measured using a cyclic enzymatic assay as described previously [Graeff et al., Biochem. J. (2002)361:379-84]. Aplysia californica ADPR-cyclase was purified from […] according to the method described [Lee et al., Cell Regul. (1991)2:203-9]. Briefly, MMCs were treated with 0.3 ml of 0.6 M perchloric acid under sonication after Ang II treatment. Precipitates were removed by centrifugation at 20,000×g for 10 min. Perchloric acid was removed by mixing the aqueous sample with a solution containing 3 volumes of 1,1,2-trichlorotrifluoroethane to 1 volume of tri-n-octlyamine. After centrifugation for 10 min at 1500×g, the aqueous layer was collected and neutralized with 20 mM sodium phosphate (pH 8). To remove all contaminating nucleotides, the samples were incubated with the following hydrolytic enzymes overnight at 37° C.: 0.44 unit/ml nucleotide pyrophosphatase, 12.5 units/ml alkaline phosphatase, 0.0625 unit/ml NADase, and 2.5 mM MgCl2 in 20 mM sodium phosphate buffer (pH 8.0). Enzymes were removed by filtration using Centricon-3 filters. To convert cADPR to NAD^+, the samples (0.1 ml/tube) were incubated with […] of a cycling reagent containing 0.3 mg/ml Aplysia ADPR-cyclase, 30 mM nicotinamide, and 100 mM sodium phosphate (pH 8) at room temperature for 30 min. The samples were further incubated with the cycling reagent (0.1 ml) containing 2% ethanol, […] alcohol dehydrogenase, 20 mM resazurin, 10 mg/ml diaphorase, 10 mM riboflavin 5′-phosphate, 10 mM nicotinamide, 0.1 mg/ml BSA, and 100 mM sodium phosphate (pH 8.0) for 2 h at room temperature. An increase in the resorufin fluorescence was measured at 544 nm excitation and 590 nm emission using a fluorescence plate reader (Molecular Devices Corp., Spectra-Max GEMINI). Various known concentrations of cADPR were also included in the cycling reaction to generate a standard curve. […] Production of cADPR as well as later sustained Ca^2+ signal in response to Ang II was inhibited with different efficacy by these small molecules (Table 1). […] The order of IC50 was 4,4′-DAHB>resveratrol>azobenzene=piceatannol>2,2′-DAHB.

Test [3] concerns Ang II induced [Ca^2+]i increase in murine mesangial cells (MMCs). Kind of test: Ang II-mediated [Ca2+]i increase in MMCs. Particulars: Mus musculus, Mesangial cell. The method, then: Changes in [Ca^2+]i in MMCs were determined as described previously [Kim et al., Exp. Mol. Med. (2006)38:535-45]. Briefly, MMCs cultured on confocal dishes for 48 h at a concentration of 10^4 cells/dish were washed with Hank's balanced salt solution (HBSS) (2 mM CaCl2, 145 mM NaCl, 5 mM KCl, 1 mM MgCl2, 5 mM D-glucose, and 20 mM HEPES, pH 7.3) and then loaded with […] Fluo 3-AM (Molecular Probe, Eugene, Oreg.). Changes in Ca^2+ fluorescence were determined at 488 nm/530 nm (excitation/emission) by air-cooled argon laser system. [Ca^2+]i was calculated using a Kd of 325 nM for Fluo 3-AM by the method of Tsien et al. (1982).

Test [4] concerns OKT3 induced [Ca^2+]i increase in Jurkat T cells. Kind of test: OKT3-mediated [Ca2+]i increase in Jurkat T cells. To be noted: pretreatment, even at 10 mM; OKT3 5 mg/ml. As to the method:
Changes in [Ca^2+]i in Jurkat T cells were determined as described above examples 1.

Setting [5] is: later sustained Ca2+ signal induced by 150 nM Ang II, 300 s, read-out: IC50([Ca^2+]i, uM) (means ± SEM).

As a reminder, the IC50 is the concentration that inhibits the measured activity by half. For `Oc1ccccc1/N=N/c1ccccc1O` [2,2′-DHAB, 2,2′-Dihydroxyazobenzene], the “effect on OKT3-mediated [cADPR]i” value in test [1] is given as “didn't inhibited”. Further, the values for the IC50 in test [2] and in test [3] (setting [5]) were 16.5 ± 2.5 µM and 15 ± 1.5 µM, respectively. In addition, the “effect on OKT3-mediated Ca2+ rise” value in test [4] was “did not show any effects”.

Consider `Oc1ccc(N=Nc2ccc(O)cc2)cc1` [4,4′-DHAB, 4,4′-Dihydroxyazobenzene], for which, in test [1], the “effect on OKT3-mediated [cADPR]i” value was “didn't inhibited”. Besides, in test [2] (MMC), the “concentration at which cADPR production stimulated by Ang II is inhibited” value came to 5 nM. Further, the IC50 was 0.0025 ± 0.0003 µM in test [2]; about 0.0025 µM in test [3] (Ang II, pretreatment, read-out: IC50 for block of the sustained Ca2+ signal); 0.0025 ± 0.0002 µM in test [3] (setting [5]). The “effect on OKT3-mediated Ca2+ rise” value in test [4] is listed as “did not show any effects”.
